One series can be described thus: Kinetic solubility assay. It counts as physicochemical. Conditions: aqueous buffer, kinetic from dmso stock, 37 °C. As to the method:
These solutions were incubated in a shaking water bath at 37 °C for 4 and 24 h. Immediately after each incubation period, the samples were centrifuged at 21,000× g Universal Centrifuge 320R Hettich (Tuttlingen, Germany) at 22 °C. The supernatant was collected, filtered through a 0.44 μm Millipore filter (Sigma-Aldrich—Saint Louis, MO, USA) into a vial, and analyzed using a HPLC LC-20AD Shimadzu (Kyoto, Japan) coupled with a DAD detector set at 457 nm. The mobile phase consisted of acetonitrile and methanol (85:15 v/v) using a 100-5C18 Kromasil (Bohus, Sweden) analytical column (4.6 mm × 250 mm, 5 μm) as the stationary phase in isocratic mode at 22 °C with a flow rate of 1 mL/min. A calibration curve was prepared using bixin in acetonitrile at concentrations ranging from 0 to 200 μM and analyzed under the same HPLC conditions. LogS was calculated as the base-10 logarithm of the solubility (in μM) for each time point.

The subject of series [1] is C57BL/6 mice challenged with intranasal LPS. Nature of the series: Intranasal LPS lung inflammation in mice, BAL cytokine ELISA. It is filed as in vivo. Particulars: 200 mg/kg gavage, 5 days. The method, then: Eight-week-old male C57BL/6 mice were obtained from the Multidisciplinary Center for Biological Research in Laboratory Animal Science (CEMIB/UNICAMP, Campinas, Brazil). The mice were provided with Purina chow ad libitum (Nuvilab, Curitiba, Brazil) and had unrestricted access to water in a controlled environment maintained at 22 ± 2 °C, 50–70% relative humidity, and a 12 h light/dark cycle (EB-273B, Insight Equipamentos Ltd., São Paulo, Brazil). They were acclimatized for two weeks before the experimental procedures. All experimental protocols were approved by the local Animal Ethics Committee (096/19).
To evaluate the pharmacological effects of potassium bixinate, the animals were divided into four groups (n = 5–7): (1) Control, (2) KBx, (3) LPS, and (4) LPS + KBx. For five consecutive days, animals in groups 2 and 4 were treated by oral gavage with 200 mg/kg of potassium bixinate diluted in PBS in a final volume of 100 μL, while animals in groups 1 and 3 were treated with 100 μL of PBS. On the sixth day, animals in groups 3 and 4 were challenged intranasally with 60 μg of LPS (extracted from Escherichia coli O55:B5) diluted in PBS (10 μL), while animals in groups 1 and 2 received 10 μL of PBS intranasally. Sixteen hours after LPS/PBS instillation, the animals were euthanized by cervical dislocation under isoflurane sedation.
Immediately following euthanasia, BAL was collected using an intratracheal cannula. The lavage was performed with 1.5 mL of saline solution (3 × 0.5 mL). The collected lavage fluid was centrifuged at 600× g for 10 min, and the supernatant was stored at −80 °C for subsequent enzyme-linked immunosorbent assay (ELISA) analysis.
Cytokine levels (IL-10 and KC; #900-K53K and #900-K127K) were quantified in BAL samples using an ELISA kit, following the manufacturer’s instructions (PeproTech, Neuilly Sur-Seine, France). A sample volume of 25 μL was used without dilution. The enzymatic reaction was initiated with peroxidase and a specific substrate, and the reaction was stopped before measuring absorbance at 450 nm and 570 nm using a Varioskan LUX spectrometer (ThermoFisher Scientific, Waltham, MA, USA). A calibration curve was generated using standard concentrations of the target protein, with the method showing linearity across a range of 2000–0 pg/mL.

Series [2] can be described thus: Solubility tests of the potassium salt. It is filed as physicochemical.

≈ marks a conversion by molar mass, not a printed value. Where only a bound is given, the exact number is not on record here.

This note sets out measurements from paper PMC12030059, “Mechanistic Advances in the Therapeutic Application of Bixin for Lung Inflammation In Vitro and In Vivo” (Pharmaceuticals, 2025).

As for `COC(=O)/C=C/C(C)=C\C=C\C(C)=C\C=C\C=C(C)\C=C\C=C(C)\C=C\C(=O)O` [HBx, (2E,4E,6E,8E,10E,12E,14E,16Z,18E)-20-methoxy-4,8,13,17-tetramethyl-20-oxoicosa-2,4,6,8,10,12,14,16,18-nonaenoic acid], the solubility at 4 h was 64 µM (≈ 25.2 µg/mL) in “Kinetic solubility assay” (PBS buffer, pH 7.4, 4 h); less than 1 µM in the series “Kinetic solubility assay” (buffered solution pH 2.0 (commercial), pH 2.0, 4 h); 30 µM (≈ 11.8 µg/mL) in “Kinetic solubility assay” (potassium-phosphate-buffered saline solution (KPE) buffer, pH 6.6, 4 h). The solubility at 24 h was 43 µM (≈ 17 µg/mL) in “Kinetic solubility assay” (PBS buffer, pH 7.4, 24 h); less than 1 µM in “Kinetic solubility assay” (buffered solution pH 2.0 (commercial), pH 2.0, 24 h); 11 µM (≈ 4.34 µg/mL) in “Kinetic solubility assay” (potassium-phosphate-buffered saline solution (KPE) buffer, pH 6.6, 24 h).

For potassium bixinate [KBx], in series [1] (no LPS), the “IL-10 levels in BAL, KBx alone” value is reported as “comparable to the control” and the “KC levels in BAL, KBx alone vs control” value is reported as “no significant effect on KC levels”. Moreover, in series [1] (then LPS 60 μg i.n., 16 h), the “IL-10 levels in BAL, LPS + KBx” value is “can increase IL-10 production in the presence of LPS” and the “KC levels in BAL, LPS + KBx vs LPS” value is given as “significantly lower compared to the LPS group”. Besides, the “aqueous solubility relative to bixin” value in series [2] was “significant increase in the aqueous solubility”.
